Laboratory results: patent US20240238424A1, “HETEROBIFUNCTIONAL COMPOUNDS AND METHODS OF TREATING DISEASE” (Halda Therapeutics OpCo, Inc., priority 2021, published 2024)

Assays:
Assay type in all cases: cell-based
22RV1 cells = experiment: Cellular growth inhibition assay (CTG), 22RV1 cells; settings: Homo sapiens, CellTiter-Glo 2.0, day-5
Experimental: (§1) Cells were seeded in Poly-D-lysine-treated 384-well white plates, with 25 μL cell suspension at 250 cells/well for continuous treatments, and 1000 cells/well for washout treatments. Plates were spun at 300×g for 3 minutes, and cells were cultured at 37° C. with 5% CO2 in a humidified tissue culture incubator.
(§2) After 24 hours, the test compounds were diluted with cell culture medium in 96 deep well plates. DMSO was used as a negative control. A 25 μL aliquot of compound-containing medium was added in each well, at a final top concentration of 10 μM or 30 μM test compound, with 3-fold dilutions. For washout assays, after 4 hours, cell medium with compound was removed, and the cells were washed with 75p L fresh medium. Plates were then spun at 300×g for 3 minutes and replaced with 50 μL fresh medium in each well. Plates were then spun at 300×g for 3 minutes again and cultured at 37° C. with 5% CO2.
(§3) At day-0 and day-5 of compound treatments, cell viability was quantified with CellTiter-Glo 2.0 (Promega). After equilibrating cell plates at room temperature for 30 minutes, 25 μL CellTiter-Glo 2.0 reagent was dispensed into each well (on top of 50 μL of cell culture). Plates were mixed on a shaker for 2 minutes at 500 rpm, followed by a 10-minute incubation at room temperature. Luminescence readings were measured with an EnVision Plate Reader. Data was normalized to DMSO treated day-0 cell wells. A four-parameter non-linear regression curve fit was applied to dose-response data in Prism to determine the half maximal growth inhibitory concentration (GI50) of each compound.

GSPT1 = biological target: T1, GSPT1 (Homo sapiens, UniProt P15170+Q96SW2); experiment: GSPT1 HiBit degradation assay; settings: Table 3; HEK293 LgBiT cells expressing GSPT1_HiBiT, luminescence after 6 hours
T1 construct: host or cells: HEK293 LgBiT cell line
T1 sequence (P15170 whole entry): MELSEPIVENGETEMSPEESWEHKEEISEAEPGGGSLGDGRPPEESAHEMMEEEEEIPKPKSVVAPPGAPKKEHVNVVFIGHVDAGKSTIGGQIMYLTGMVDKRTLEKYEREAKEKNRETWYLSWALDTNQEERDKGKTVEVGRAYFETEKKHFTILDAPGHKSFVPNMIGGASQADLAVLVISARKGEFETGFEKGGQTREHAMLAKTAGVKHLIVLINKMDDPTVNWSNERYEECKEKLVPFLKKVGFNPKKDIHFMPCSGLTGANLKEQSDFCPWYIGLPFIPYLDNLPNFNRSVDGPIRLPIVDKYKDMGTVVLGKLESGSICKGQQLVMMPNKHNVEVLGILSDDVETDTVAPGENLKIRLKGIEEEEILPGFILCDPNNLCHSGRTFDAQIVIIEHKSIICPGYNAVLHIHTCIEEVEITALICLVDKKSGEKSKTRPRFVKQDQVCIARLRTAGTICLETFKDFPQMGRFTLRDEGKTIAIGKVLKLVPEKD
T1 sequence (Q96SW2 whole entry): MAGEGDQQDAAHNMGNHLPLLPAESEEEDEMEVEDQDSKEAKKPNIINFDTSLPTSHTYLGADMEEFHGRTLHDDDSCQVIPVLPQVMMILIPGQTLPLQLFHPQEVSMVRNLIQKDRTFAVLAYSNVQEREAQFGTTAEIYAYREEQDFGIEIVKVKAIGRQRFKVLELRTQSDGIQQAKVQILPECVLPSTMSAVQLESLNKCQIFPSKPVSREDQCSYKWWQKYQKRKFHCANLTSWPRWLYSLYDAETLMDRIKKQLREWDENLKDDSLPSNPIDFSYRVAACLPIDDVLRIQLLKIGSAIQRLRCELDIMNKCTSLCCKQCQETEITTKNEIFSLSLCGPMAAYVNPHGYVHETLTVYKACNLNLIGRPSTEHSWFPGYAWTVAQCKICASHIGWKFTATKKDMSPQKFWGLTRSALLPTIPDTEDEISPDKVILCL
T1 sequence (Q16531 whole entry partner): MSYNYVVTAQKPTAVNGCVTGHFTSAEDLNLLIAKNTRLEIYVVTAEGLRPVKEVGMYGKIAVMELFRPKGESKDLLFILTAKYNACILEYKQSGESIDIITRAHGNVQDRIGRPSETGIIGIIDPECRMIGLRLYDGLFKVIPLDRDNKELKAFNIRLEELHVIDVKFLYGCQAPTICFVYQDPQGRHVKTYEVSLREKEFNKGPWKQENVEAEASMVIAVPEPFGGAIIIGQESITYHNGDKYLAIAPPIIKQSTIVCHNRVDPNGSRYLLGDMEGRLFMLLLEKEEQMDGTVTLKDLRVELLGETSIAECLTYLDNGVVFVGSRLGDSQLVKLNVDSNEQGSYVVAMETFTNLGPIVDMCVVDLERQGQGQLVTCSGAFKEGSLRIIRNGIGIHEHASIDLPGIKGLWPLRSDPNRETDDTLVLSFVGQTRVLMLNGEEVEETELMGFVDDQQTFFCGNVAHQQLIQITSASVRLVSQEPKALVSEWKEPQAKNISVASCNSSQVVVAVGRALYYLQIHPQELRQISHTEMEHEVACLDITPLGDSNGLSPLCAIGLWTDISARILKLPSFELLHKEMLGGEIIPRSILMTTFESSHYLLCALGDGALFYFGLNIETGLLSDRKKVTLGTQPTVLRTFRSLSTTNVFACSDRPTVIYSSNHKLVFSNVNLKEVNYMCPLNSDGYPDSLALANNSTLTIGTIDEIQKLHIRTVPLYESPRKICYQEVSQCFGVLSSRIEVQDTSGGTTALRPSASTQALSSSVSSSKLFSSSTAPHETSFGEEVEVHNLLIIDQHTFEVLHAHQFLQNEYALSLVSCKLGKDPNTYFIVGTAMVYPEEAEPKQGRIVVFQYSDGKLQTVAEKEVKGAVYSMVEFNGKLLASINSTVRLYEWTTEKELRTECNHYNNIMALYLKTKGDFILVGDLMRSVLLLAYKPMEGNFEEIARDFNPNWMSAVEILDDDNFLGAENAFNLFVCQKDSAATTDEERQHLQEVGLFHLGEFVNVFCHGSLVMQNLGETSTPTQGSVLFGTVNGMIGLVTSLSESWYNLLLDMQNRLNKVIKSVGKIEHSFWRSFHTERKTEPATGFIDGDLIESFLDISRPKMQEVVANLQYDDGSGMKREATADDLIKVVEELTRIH
Method in brief: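 Degradation readout is luminescence at 6 h, with DC50 taken as the concentration giving 50% GSPT1 loss. Compound titrations were added together with endurazine (0.5× final) to HEK293 LgBiT/GSPT1-HiBiT cells seeded the day before and kept at 37 °C.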

U937 cells = experiment: Cellular growth inhibition assay (CTG), U937 cells; settings: Homo sapiens, U-937, CellTiter-Glo 2.0, day-5
Experimental: as §1, §2, §3

GI50 (22RV1 cells) | DC50 (GSPT1) | GI50 (U937 cells) | Structure (SMILES)
– | < 250 nM | < 100 nM | CN(C/C=C/C(=O)N1CCC([C@@H]2CCNc3c(C(N)=O)c(-c4ccc(Oc5ccccc5)cc4)nn32)CC1)CCOCCOCCOCCOCCCCCCCCc1cc(Cl)cc(NC(=O)NCc2ccc3c(c2)CN(C2CCC(=O)NC2=O)C3=O)c1 (stereo partly shown) [Compound I-74]
– | < 250 nM | < 100 nM | CN(C/C=C/C(=O)N1CCC[C@@H](n2nc(-c3ccc(Oc4ccccc4)cc3)c3c(N)ncnc32)C1)CCOCCOCCOCCOCCCCCCCCc1cc(Cl)cc(NC(=O)NCc2ccc3c(c2)CN(C2CCC(=O)NC2=O)C3=O)c1 (stereo partly shown) [Compound I-67]
– | 250 to 5000 nM | 1000 to 5000 nM | Nc1ncnc2c1c(-c1ccc(Oc3ccccc3)cc1)nn2[C@@H]1CCCN(C(=O)/C=C/COCCOCCOCCOCCOCCOCCOCCOCCOCCOc2cc(Cl)cc(NC(=O)NCc3ccc4c(c3)CN(C3CCC(=O)NC3=O)C4=O)c2)C1 (stereo partly shown) [Compound I-31]
< 100 nM | < 250 nM | – | CC1(C)[C@H](NC(=O)c2ccc(OCCOCCOCCOCCOCCOCCOCCc3cc(Cl)cc(NC(=O)NCc4ccc5c(c4)CN(C4CCC(=O)NC4=O)C5=O)c3)cc2)C(C)(C)[C@H]1Oc1ccc(C#N)c(Cl)c1 (stereo partly shown) [Compound I-22, N-((1r,3r)-3-(3-chloro-4-cyanophenoxy)-2,2,4,4-tetramethylcyclobutyl)-4-((20-(3-chloro-5-(3-((2-(2,6-dioxopiperidin-3-yl)-1-oxoisoindolin-5-yl)methyl)ureido)phenyl)-3,6,9,12,15,18-hexaoxaicosyl)oxy)benzamide]
– | < 250 nM | < 100 nM | CN(C/C=C/C(=O)N1CCC[C@@H](n2nc(-c3ccc(Oc4ccccc4)cc3)c3c(N)ncnc32)C1)CCOCCOCCOCCOCCOCCOCCCCCCCCc1cc(Cl)cc(NC(=O)NCc2ccc3c(c2)CN(C2CCC(=O)NC2=O)C3=O)c1 (stereo partly shown) [Compound I-72]

Further lines, the molecule ahead of its results:

Structure (SMILES) | GI50 (22RV1 cells) | DC50 (GSPT1) | GI50 (U937 cells)
CC1(C)[C@H](NC(=O)c2ccc(OCCOCCOCCOCCOCCOCCOCCOCCOCCOCCOCCOc3cc(Cl)cc(NC(=O)NCc4ccc5c(c4)CN(C4CCC(=O)NC4=O)C5=O)c3)cc2)C(C)(C)[C@H]1Oc1ccc(C#N)c(Cl)c1 (stereo partly shown) [Compound I-21, N-[3-(3-chloro-4-cyano-phenoxy)-2,2,4,4-tetramethyl-cyclobutyl]-4-[2-[2-[2-[2-[2-[2-[2-[2-[2-[2-[2-[3-chloro-5-[[2-(2,6-dioxo-3-piperidyl)-1-oxo-isoindolin-5-yl]methylcarbamoylamino]phenoxy]ethoxy]ethoxy]ethoxy]ethoxy]ethoxy]ethoxy]ethoxy]ethoxy]ethoxy]ethoxy]ethoxy]benzamide] | 100 to 1000 nM | 250 to 5000 nM | –
CC1(C)[C@H](NC(=O)c2ccc(OCCOCCOCCOCCOCCOCCOCCOCCOCCOc3cc(Cl)cc(NC(=O)NCc4ccc5c(c4)CN(C4CCC(=O)NC4=O)C5=O)c3)cc2)C(C)(C)[C@H]1Oc1ccc(C#N)c(Cl)c1 (stereo partly shown) [Compound I-20, N-[3-(3-chloro-4-cyano-phenoxy)-2,2,4,4-tetramethyl-cyclobutyl]-4-[2-[2-[2-[2-[2-[2-[2-[2-[2-[3-chloro-5-[[2-(2,6-dioxo-3-piperidyl)-1-oxo-isoindolin-5-yl]methylcarbamoylamino]phenoxy]ethoxy]ethoxy]ethoxy]ethoxy]ethoxy]ethoxy]ethoxy]ethoxy]ethoxy]benzamide] | < 100 nM | 250 to 5000 nM | –
CC1(C)[C@H](NC(=O)c2ccc(OCCOCCOCCOCCOCCOCCOCCOc3cc(Cl)cc(NC(=O)NCc4ccc5c(c4)CN(C4CCC(=O)NC4=O)C5=O)c3)cc2)C(C)(C)[C@H]1Oc1ccc(C#N)c(Cl)c1 (stereo partly shown) [Compound I-19, N-((1r,3r)-3-(3-chloro-4-cyanophenoxy)-2,2,4,4-tetramethylcyclobutyl)-4-((20-(3-chloro-5-(3-((2-(2,6-dioxopiperidin-3-yl)-1-oxoisoindolin-5-yl)methyl)ureido)phenoxy)-3,6,9,12,15,18-hexaoxaicosyl)oxy)benzamide] | < 100 nM | 250 to 5000 nM | –
